Experimental data published in patent US20250228239A1, “MOLECULES HAVING PESTICIDAL UTILITY, AND INTERMEDIATES, COMPOSITIONS, AND PROCESSES, RELATED THERETO” (priority 2024, published 2025).

What was measured:
Type in all cases: in vivo
[1] = system: Cabbage Looper (Trichoplusia ni, TRIPNI); assay: Bioassays on Cabbage Looper (CL), 128-well diet tray assay; conditions: Trichoplusia ni; Cabbage Looper, Table ABC / ABC-DP rating; read-out: CL rating
Procedure, shortened: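 Percent mortality, averaged across eight replicate wells, after second-instar larvae (1–5 per well) fed for five to seven days on diet dosed at 50 μg/cm^2. Compound was applied in acetone-water 90:10 and dried; trays kept vented at 25° C under 14:10 photoperiod.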

[2] = system: Yellow Fever Mosquito (Aedes aegypti, AEDSAE); conditions: Yellow Fever Mosquito, Table ABC / ABC-DP rating
Procedure, shortened: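 Compounds from 4000 ppm DMSO stocks were diluted in 90:10 water/acetone and dispensed into wells, then infested with about 1-day-old larvae in liver-powder water. Covered plates were held at room temperature for 3 days and each well was scored for mortality against a rating scale; six replicate plates per compound.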

[3] = system: Beet Armyworm (Spodoptera exigua, LAPHEG); assay: Bioassays on Beet Armyworm (BAW), 128-well diet tray assay; conditions: Spodoptera exigua; Beet Armyworm, Table ABC / ABC-DP rating; read-out: BAW rating
Procedure, shortened: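 One to five second-instar larvae per well on artificial diet surface-treated with 50 μg/cm^2 test molecule (applied in 90:10 acetone-water, dried), eight wells per compound. Trays held vented at 25° C., 14:10 light-dark for five to seven days; percent mortality averaged over the eight wells.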

Compound | pest or weed control at 50 µg/cm2 [1] | YFM rating [2] | pest or weed control at 50 µg/cm2 [3]
CC(Br)CC(=O)Nc1c(F)ccc(NC(=O)c2cc(NC(=O)[C@H]3[C@H](c4ccc(F)c(C(F)(F)F)c4)C3(Cl)Cl)ccc2Cl)c1F (stereo partly drawn) [F1853, N-(3-(3-Bromobutanamido)-2,4-difluorophenyl)-2-chloro-5-((1R,3R)-2,2-dichloro-3-(4-fluoro-3-(trifluoromethyl)phenyl)cyclopropane-1-carboxamido)benzamide] | 50 to 100% | A (80–100) | 50 to 100%
O=C(CCC1CC1)Nc1c(F)ccc(NC(=O)c2cc(NC(=O)[C@H]3[C@H](c4ccc(F)c(C(F)(F)F)c4)C3(Cl)Cl)ccc2Cl)c1F [F1854, 2-Chloro-N-(3-(3-cyclopropylpropanamido)-2,4-difluorophenyl)-5-((1R,3R)-2,2-dichloro-3-(4-fluoro-3-(trifluoromethyl)phenyl)cyclopropane-1-carboxamido)benzamide] | 50 to 100% | A (80–100) | 50 to 100%
CC(C)(C)CCCC(=O)Nc1c(F)ccc(NC(=O)c2cc(NC(=O)[C@H]3[C@H](c4ccc(F)c(C(F)(F)F)c4)C3(Cl)Cl)ccc2Cl)c1F [F1856, 2-Chloro-5-((1R,3R)-2,2-dichloro-3-(4-fluoro-3-(trifluoromethyl)phenyl)cyclopropane-1-carboxamido)-N-(3-(5,5-dimethylhexanamido)-2,4-difluorophenyl)benzamide] | 50 to 100% | B (More than 0 – Less than 80) | 50 to 100%
C#CCCCC(=O)Nc1c(F)ccc(NC(=O)c2cc(NC(=O)[C@H]3[C@H](c4ccc(F)c(C(F)(F)F)c4)C3(Cl)Cl)ccc2Cl)c1F [F1857] | 50 to 100% | A (80–100) | 50 to 100%
O=C(CCC(F)(OC(F)(F)F)C(F)(F)F)Nc1c(F)ccc(NC(=O)c2cc(NC(=O)[C@H]3[C@H](c4ccc(F)c(C(F)(F)F)c4)C3(Cl)Cl)ccc2Cl)c1F (stereo partly drawn) [F1858, 2-Chloro-5-((1R,3R)-2,2-dichloro-3-(4-fluoro-3-(trifluoromethyl)phenyl)cyclopropane-1-carboxamido)-N-(2,4-difluoro-3-(4,5,5,5-tetrafluoro-4-(trifluoromethoxy)pentanamido)phenyl)benzamide] | 50 to 100% | A (80–100) | 50 to 100%
CC(CC(F)(F)F)C(=O)Nc1c(F)ccc(NC(=O)c2cc(NC(=O)[C@H]3[C@H](c4ccc(F)c(Cl)c4)C3(Cl)Cl)ccc2Cl)c1F (stereo partly drawn) [F1866, 2-Chloro-5-((1R,3R)-2,2-dichloro-3-(3-chloro-4-fluorophenyl)cyclopropane-1-carboxamido)-N-(2,4-difluoro-3-(4,4,4-trifluoro-2-methylbutanamido)phenyl) benzamide] | 50 to 100% | A (80–100) | 50 to 100%
C/C=C/C(=O)Nc1c(F)ccc(NC(=O)c2cc(NC(=O)[C@H]3[C@H](c4ccc(F)c(C(F)(F)F)c4)C3(Cl)Cl)ccc2Cl)c1F [F1868, N-(3-((E)-But-2-enamido)-2,4-difluorophenyl)-2-chloro-5-((1R,3R)-2,2-dichloro-3-(4-fluoro-3-(trifluoromethyl)phenyl)cyclopropane-1-carboxamido)benzamide] | 50 to 100% | A (80–100) | 50 to 100%
O=C(/C=C/C(F)(F)F)Nc1c(F)ccc(NC(=O)c2cc(NC(=O)[C@H]3[C@H](c4ccc(F)c(C(F)(F)F)c4)C3(Cl)Cl)ccc2Cl)c1F [F1869, 2-Chloro-5-((1R,3R)-2,2-dichloro-3-(4-fluoro-3-(trifluoromethyl)phenyl)cyclopropane-1-carboxamido)-N-(2,4-difluoro-3-((E)-4,4,4-trifluorobut-2-enamido)phenyl)benzamide] | 50 to 100% | A (80–100) | 50 to 100%
C=C(F)C(=O)Nc1c(F)ccc(NC(=O)c2cc(NC(=O)[C@H]3[C@H](c4ccc(F)c(C(F)(F)F)c4)C3(Cl)Cl)ccc2Cl)c1F [F1870, 2-Chloro-5-((1R,3R)-2,2-dichloro-3-(4-fluoro-3-(trifluoromethyl)phenyl)cyclopropane-1-carboxamido)-N-(2,4-difluoro-3-(2-fluoroacrylamido)phenyl)benzamide] | 50 to 100% | A (80–100) | 50 to 100%
C=CCC(=O)Nc1c(F)ccc(NC(=O)c2cc(NC(=O)[C@H]3[C@H](c4ccc(F)c(C(F)(F)F)c4)C3(Cl)Cl)ccc2Cl)c1F [F1874, N-(3-(But-3-enamido)-2,4-difluorophenyl)-2-chloro-5-((1R,3R)-2,2-dichloro-3-(4-fluoro-3-(trifluoromethyl)phenyl)cyclopropane-1-carboxamido)benzamide] | 50 to 100% | A (80–100) | 50 to 100%
C=CCC(=O)Nc1c(F)ccc(NC(=O)c2cc(NC(=O)[C@H]3[C@H](c4ccc(F)c(Cl)c4)C3(Cl)Cl)ccc2Cl)c1F [F1876, N-(3-(But-3-enamido)-2,4-difluorophenyl)-2-chloro-5-((1R,3R)-2,2-dichloro-3-(3-chloro-4-fluorophenyl)cyclopropane-1-carboxamido)benzamide] | 50 to 100% | A (80–100) | 50 to 100%
C=CCC(=O)Nc1c(F)ccc(NC(=O)c2cc(NC(=O)[C@H]3[C@H](c4cccc(C(F)(F)F)c4)C3(Cl)Cl)ccc2Cl)c1F [F1878, N-(3-(But-3-enamido)-2,4-difluorophenyl)-2-chloro-5-((1R,3R)-2,2-dichloro-3-(3-(trifluoromethyl)phenyl)cyclopropane-1-carboxamido)benzamide] | 50 to 100% | A (80–100) | 50 to 100%
C=CCC(=O)Nc1c(F)ccc(NC(=O)c2cc(NC(=O)[C@H]3[C@H](c4cc(F)cc(C(F)(F)F)c4)C3(Cl)Cl)ccc2Cl)c1F [F1879, N-(3-(But-3-enamido)-2,4-difluorophenyl)-2-chloro-5-((1R,3R)-2,2-dichloro-3-(3-fluoro-5-(trifluoromethyl)phenyl)cyclopropane-1-carboxamido)benzamide] | 50 to 100% | A (80–100) | 50 to 100%
O=C(NCC(F)(F)F)c1cc(NC(=O)C2C(c3cc(Br)cc(S(F)(F)(F)(F)F)c3)C2(Cl)Cl)ccc1Cl (stereo not drawn) [F2009, cis-5-(3-(3-Bromo-5-(pentafluoro-λ^6-sulfanyl)phenyl)-2,2-dichiorocyclopropane-1-carboxamido)-2-chloro-N-(2,2,2-trifluoroethyl)benzamide] | 50 to 100% | A (80–100) | 50 to 100%
O=C(CCNC(=O)c1cc(NC(=O)C2C(c3cc(Cl)cc(Cl)c3)C2(Cl)Cl)ccc1Cl)NCC(F)(F)F [F2079, trans-2-Chloro-5-((1R,3R)-2,2-dichloro-3-(3,5-dichlorophenyl)cyclopropane-1-carboxamido)-N-(3-oxo-3-(2,2,2-trifluoroethylamino)propyl)benzamide] | 50 to 100% | A (80–100) | 50 to 100%
O=C(NCC(F)(F)C(F)(F)F)c1cc(NC(=O)[C@H]2[C@H](c3ccc(F)c(C(F)(F)F)c3)C2(Cl)Cl)c(F)cc1Cl [F2085, 2-Chloro-5-((1R,3R)-2,2-dichloro-3-(4-fluoro-3-(trifluoromethyl)phenyl)cyclopropane-1-carboxamido)-4-fluoro-N-(2,2,3,3,3-pentafluoropropyl)benzamide] | 50 to 100% | A (80–100) | 50 to 100%
CC(F)(F)CNC(=O)c1cc(NC(=O)C2C(c3cc(Cl)cc(Cl)c3)C2(Cl)Cl)cc(F)c1Cl (stereo not drawn) [F2087] | 50 to 100% | A (80–100) | 50 to 100%
CN(NC(=O)c1cc(NC(=O)[C@H]2[C@H](c3cc(Cl)cc(Cl)c3)C2(Cl)Cl)ccc1Cl)c1ccccc1 [F2510, (1R,3R)-2,2-Dichloro-N-(4-chloro-3-(2-methyl-2-phenylhydrazine-1-carbonyl)phenyl)-3-(3,5-dichlorophenyl)cyclopropane-1-carboxamide] | 50 to 100% | A (80–100) | 50 to 100%
CN(NC(=O)c1cc(NC(=O)[C@H]2[C@H](c3cc(Cl)c(Cl)c(Cl)c3)C2(Cl)Cl)ccc1Cl)c1ccccc1 [F2511, (1R,3R)-2,2-Dichloro-N-(4-chloro-3-(2-methyl-2-phenylhydrazine-1-carbonyl)phenyl)-3-(3,4,5-trichlorophenyl)cyclopropane-1-carboxamide] | 50 to 100% | A (80–100) | 50 to 100%
CN(NC(=O)c1cc(NC(=O)[C@H]2[C@H](c3ccc(F)c(Cl)c3)C2(Cl)Cl)ccc1Cl)c1ccccc1 [F2512, (1R,3R)-2,2-Dichloro-N-(4-chloro-3-(2-methyl-2-phenylhydrazine-1-carbonyl)phenyl)-3-(3-chloro-4-fluorophenyl)cyclopropane-1-carboxamide] | 50 to 100% | A (80–100) | 50 to 100%
